Measured values: ChEMBL document CHEMBL5113380, “Functionalized quinoxalinones as privileged structures with broad-ranging pharmacological activities” (Eur J Med Chem, 2022)
In brackets after ≈: the same amount, converted by molar mass.

Key:
[1] = molecular target: T1, Glutamate receptor ionotropic AMPA (Homo sapiens, UniProt P42261+P42262+P42263+P48058); test: Displacement of [3H]AMPA from AMPA receptor (unknown origin); format: protein-complex assay
[2] = Inhibition of ALR2 (unknown origin); design: species or system Homo sapiens
[3] = Inhibition of ALR1 (unknown origin) relative to control; design: concentration or dose not given beside the values; conditions: Homo sapiens; concentration not given here
[4] = Displacement of [3H]glycine from AMPA receptor (unknown origin); format: protein-complex assay, Homo sapiens
[5] = molecular target: Glutamate [NMDA] receptor; test: Displacement of [3H]DCKA from NMDA receptor (unknown origin); format: protein-complex assay, Homo sapiens
[6] = test system: Pseudomonas aeruginosa; test: Antibacterial activity against Pseudomonas aeruginosa; format: functional
[7] = test system: Escherichia coli; test: Antibacterial activity against Escherichia coli; format: functional
[8] = test system: Staphylococcus aureus; test: Antibacterial activity against Staphylococcus aureus; format: functional
[9] = test system: Candida albicans; test: Antifungal activity against Candida albicans; format: functional
[10] = test system: Bacillus cereus; test: Antibacterial activity against Bacillus cereus; format: functional
[11] = test system: Aspergillus niger; test: Antifungal activity against Aspergillus niger; format: functional
[12] = test system: Trichophyton mentagrophytes; test: Antimicrobial activity against Trichophyton mentagrophytes; format: functional
[13] = molecular target: T1, Glutamate receptor ionotropic AMPA; test: Binding affinity to AMPA receptor (unknown origin); format: protein-complex assay
[14] = test system: Klebsiella pneumoniae; test: Antibacterial activity against Klebsiella pneumoniae; format: functional
[15] = Antioxidant activity assessed as DPPH radical scavenging activity; format: functional; conditions: read-out: IC50
[16] = molecular target: Glutamate receptor ionotropic, kainate 1 (Homo sapiens, UniProt P39086); test: Binding affinity to GluK1 receptor (unknown origin)
[17] = molecular target: Glutamate receptor ionotropic, kainate 2 (Homo sapiens, UniProt Q13002); test: Binding affinity to GluK2 receptor (unknown origin)
[18] = Binding affinity to KA receptor (unknown origin); design: species or system Homo sapiens
[19] = molecular target: Glutamate [NMDA] receptor; test: Binding affinity to NMDA receptor (unknown origin); format: protein-complex assay, Homo sapiens
[20] = molecular target: Glutamate receptor 2 (Homo sapiens, UniProt P42262); test: Binding affinity to GluA2 receptor (unknown origin)
[21] = molecular target: T1, Glutamate receptor ionotropic AMPA; test: Displacement of [3H]kainic acid from AMPA receptor (unknown origin); format: protein-complex assay
[22] = test system: MCF7; test: Antiproliferative activity against human MCF7 cells; format: functional, cell-based
[23] = test system: HeLa; test: Antiproliferative activity against human HeLa cells; format: functional, cell-based

Sequence of Glutamate receptor ionotropic, kainate 1 (P39086 whole entry): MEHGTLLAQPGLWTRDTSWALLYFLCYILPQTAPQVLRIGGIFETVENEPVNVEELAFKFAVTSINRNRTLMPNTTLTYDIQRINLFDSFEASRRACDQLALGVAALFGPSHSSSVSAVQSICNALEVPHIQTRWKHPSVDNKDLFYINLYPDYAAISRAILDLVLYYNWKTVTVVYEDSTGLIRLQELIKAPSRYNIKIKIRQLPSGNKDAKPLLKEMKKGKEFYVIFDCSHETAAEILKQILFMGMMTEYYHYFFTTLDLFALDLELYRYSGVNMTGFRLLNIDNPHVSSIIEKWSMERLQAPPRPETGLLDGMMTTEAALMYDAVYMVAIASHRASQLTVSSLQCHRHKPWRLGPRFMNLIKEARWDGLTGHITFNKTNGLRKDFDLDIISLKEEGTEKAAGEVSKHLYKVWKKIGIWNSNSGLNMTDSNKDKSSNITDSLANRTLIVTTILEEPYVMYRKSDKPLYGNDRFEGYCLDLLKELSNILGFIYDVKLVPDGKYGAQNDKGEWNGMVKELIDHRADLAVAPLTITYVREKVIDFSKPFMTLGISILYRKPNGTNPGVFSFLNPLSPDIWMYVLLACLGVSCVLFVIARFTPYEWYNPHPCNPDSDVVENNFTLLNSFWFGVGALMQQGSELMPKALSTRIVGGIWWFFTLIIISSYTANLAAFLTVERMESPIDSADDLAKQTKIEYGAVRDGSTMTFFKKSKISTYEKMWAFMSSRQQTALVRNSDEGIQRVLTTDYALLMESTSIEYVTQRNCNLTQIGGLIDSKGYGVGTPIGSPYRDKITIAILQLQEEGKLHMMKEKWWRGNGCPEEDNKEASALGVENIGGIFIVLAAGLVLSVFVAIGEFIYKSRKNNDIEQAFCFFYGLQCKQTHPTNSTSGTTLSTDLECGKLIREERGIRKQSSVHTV
Sequence of Glutamate receptor ionotropic, kainate 2 (Q13002 whole entry): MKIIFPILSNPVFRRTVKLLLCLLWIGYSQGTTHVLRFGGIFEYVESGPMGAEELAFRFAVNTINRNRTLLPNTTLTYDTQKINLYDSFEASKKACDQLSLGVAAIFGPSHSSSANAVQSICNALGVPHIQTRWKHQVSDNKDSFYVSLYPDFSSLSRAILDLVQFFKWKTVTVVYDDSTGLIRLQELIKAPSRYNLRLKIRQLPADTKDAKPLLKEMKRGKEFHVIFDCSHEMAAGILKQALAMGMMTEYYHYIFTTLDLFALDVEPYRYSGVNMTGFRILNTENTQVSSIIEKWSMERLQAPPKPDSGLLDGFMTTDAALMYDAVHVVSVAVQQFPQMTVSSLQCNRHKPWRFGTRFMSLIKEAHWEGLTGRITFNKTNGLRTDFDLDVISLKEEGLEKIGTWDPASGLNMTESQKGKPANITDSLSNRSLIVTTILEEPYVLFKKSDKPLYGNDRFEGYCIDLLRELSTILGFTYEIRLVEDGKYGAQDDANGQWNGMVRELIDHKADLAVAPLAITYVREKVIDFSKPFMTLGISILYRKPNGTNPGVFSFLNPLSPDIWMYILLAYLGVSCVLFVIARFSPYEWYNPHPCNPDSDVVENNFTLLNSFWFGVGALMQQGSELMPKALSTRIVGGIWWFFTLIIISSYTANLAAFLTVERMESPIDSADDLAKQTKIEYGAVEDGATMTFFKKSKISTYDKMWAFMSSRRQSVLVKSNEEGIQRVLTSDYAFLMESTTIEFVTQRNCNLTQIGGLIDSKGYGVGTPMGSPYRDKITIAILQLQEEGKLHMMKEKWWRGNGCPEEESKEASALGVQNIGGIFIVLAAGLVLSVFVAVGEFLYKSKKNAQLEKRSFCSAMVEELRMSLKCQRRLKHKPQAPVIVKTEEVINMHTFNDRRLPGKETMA
Sequence of Glutamate receptor 2 (P42262 whole entry): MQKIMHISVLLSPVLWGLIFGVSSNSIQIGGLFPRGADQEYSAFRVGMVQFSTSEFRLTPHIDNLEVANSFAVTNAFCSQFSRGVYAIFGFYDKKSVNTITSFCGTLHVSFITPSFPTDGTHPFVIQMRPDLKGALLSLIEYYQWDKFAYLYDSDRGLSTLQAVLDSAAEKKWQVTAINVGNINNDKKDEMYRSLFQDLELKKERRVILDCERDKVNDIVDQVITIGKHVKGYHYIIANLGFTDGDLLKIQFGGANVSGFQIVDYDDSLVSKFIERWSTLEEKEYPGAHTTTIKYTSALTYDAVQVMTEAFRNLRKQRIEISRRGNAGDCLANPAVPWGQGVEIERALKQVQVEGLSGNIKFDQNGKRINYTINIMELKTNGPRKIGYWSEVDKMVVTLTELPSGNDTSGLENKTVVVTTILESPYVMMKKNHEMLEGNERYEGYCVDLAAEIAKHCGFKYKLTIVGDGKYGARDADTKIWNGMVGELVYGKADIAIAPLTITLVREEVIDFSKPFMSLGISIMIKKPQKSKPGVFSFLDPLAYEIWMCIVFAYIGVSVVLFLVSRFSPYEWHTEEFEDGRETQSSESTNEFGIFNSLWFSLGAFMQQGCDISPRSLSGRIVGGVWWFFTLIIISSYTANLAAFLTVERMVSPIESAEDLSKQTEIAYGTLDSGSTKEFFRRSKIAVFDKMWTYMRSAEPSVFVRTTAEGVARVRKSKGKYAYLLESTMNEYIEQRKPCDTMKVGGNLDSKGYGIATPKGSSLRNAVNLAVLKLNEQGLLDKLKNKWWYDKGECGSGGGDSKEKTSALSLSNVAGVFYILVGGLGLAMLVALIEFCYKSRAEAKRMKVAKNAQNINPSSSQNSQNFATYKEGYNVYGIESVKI

CCc1c(Br)cc2nc(O)c(O)nc2c1CN(C)CC(=O)O
IC50 [1]: 2320 nM

O=C(O)Cn1c(=O)c(CCc2ccccc2)nc2ccccc21
IC50 [2]: 143 nM
inhibition [3]: 22%

NC(CNC(=O)C(=O)O)C(=O)O (stereo not drawn)
IC50 [1]: 1300 nM

O=C(O)Cn1c(=O)c(Oc2ccc(Br)cc2)nc2ccc(F)cc21
IC50 [2]: 11.4 nM
inhibition [3]: 30.7%

O=[N+]([O-])c1cc2nc(O)c(O)nc2nc1-n1ccnc1
Ki [1]: 140 nM
Ki [4]: 10000 nM

O=c1[nH]c2c([N+](=O)[O-])c(Cl)c(Cl)c([N+](=O)[O-])c2nc1Oc1ccccc1
IC50 [2]: 1540 nM

C[C@H]1Cc2cc(Br)cc3[nH]c(=O)c(=O)n(c23)C1CC(=O)Nc1ccccc1 (stereo partly drawn)
Ki [5]: 3 nM

CCc1c([N+](=O)[O-])cc2nc(O)c(O)nc2c1CN(C)CC(=O)O
IC50 [1]: 140 nM
IC50 [4]: 470 nM

CCCCCCCCC[n+]1cccc(-c2nc(-c3ccccc3)c3c(=O)n(CCCCCC)c4ccccc4n23)c1.[I-]
MBC [6]: > 500 µg/mL
MIC [6]: > 500 µg/mL
MBC [7]: > 500 µg/mL
MIC [7]: > 500 µg/mL
MBC [8]: 5 µg/mL
MIC [8]: 0.78 µg/mL
MBC [9]: 500 µg/mL
MIC [9]: 500 µg/mL
MBC [10]: 500 µg/mL
MIC [10]: 0.78 µg/mL
MBC [11]: > 500 µg/mL
MIC [11]: > 500 µg/mL
MBC [12]: > 500 µg/mL
MIC [12]: > 500 µg/mL

O=C(Nc1ccc(C(=O)O)cc1)OCc1cn(-c2cc3nc(C(=O)O)c(=O)[nH]c3cc2[N+](=O)[O-])cn1
Ki [13]: 22 nM

O=C(O)C[C@H]1CCc2cc(Br)cc3[nH]c(=O)c(=O)n1c23
Ki [5]: 9.6 nM

CSCCc1nc2ccc(N3C(=O)CSC3c3ccc([N+](=O)[O-])cc3)cc2[nH]c1=O (stereo not drawn)
MBC [9]: 353 µM
MBC [14]: 706 µM (≈ 313 µg/mL)
IC50 [15]: 29000 nM

O=c1[nH]c2ccc(CCCP(=O)(O)O)cc2[nH]c1=O
IC50 [13]: > 100000 nM
Ki [16]: > 100000 nM
Ki [17]: > 100000 nM
IC50 [18]: > 100000 nM
Ki [19]: 55000 nM

O=C(O)Cn1c(=O)c(Oc2ccc(Br)cc2)nc2cc(Br)ccc21
IC50 [2]: 16.3 nM
inhibition [3]: 25.6%

CC[C@H]1Cc2cc(Br)cc3[nH]c(=O)c(=O)n(c23)C1CC(=O)O (stereo partly drawn)
Ki [5]: 1.4 nM

O=c1[nH]c2ccc(CCP(=O)(O)O)cc2[nH]c1=O
IC50 [13]: > 100000 nM
Ki [16]: > 100000 nM
Ki [17]: > 100000 nM
IC50 [18]: > 100000 nM
Ki [19]: 56000 nM

CCOC(=O)c1nc2c(O)nc3cc([N+](=O)[O-])c(-n4ccc(C(=O)O)c4)cc3n2n1
Ki [1]: 68 nM

CCOC(=O)c1nc2cc(C(F)(F)F)ccc2[nH]c1=O
MIC [7]: 125 µg/mL (≈ 437 µM)
MIC [8]: 250 µg/mL (≈ 873 µM)

CCOC(=O)CN(C)Cc1c(CC)c([N+](=O)[O-])cc2nc(O)c(O)nc12
IC50 [1]: 1590 nM
IC50 [4]: > 10000 nM

O=C(Nn1c(=O)c(=O)[nH]c2cc(C#CCCO)ccc21)c1ccccc1
Ki [20]: > 100000 nM
Ki [16]: 12700 nM

O=c1[nH]c2cc([N+](=O)[O-])c(-n3ccnc3)nc2n2cnnc12
Ki [1]: 190 nM

O=C(O)c1ccn(-c2cc3c(cc2[N+](=O)[O-])nc(O)c2nc(C(=O)O)nn23)c1
Ki [1]: 19 nM

O=C1CSC(c2ccc([N+](=O)[O-])cc2)N1c1ccc2nc(Cc3ccc(O)cc3)c(=O)[nH]c2c1 (stereo not drawn)
IC50 [15]: 10500 nM

CCOC(=O)c1nc2cc(F)ccc2[nH]c1=O
MIC [6]: 250 µg/mL (≈ 1060 µM)

N[C@@H](Cc1ccc2[nH]c(=O)c(=O)[nH]c2c1)C(=O)O
IC50 [1]: 203000 nM
IC50 [21]: > 300000 nM
Ki [20]: > 100000 nM
Ki [16]: > 100000 nM
Ki [17]: 136000 nM

O=C(O)Cn1c(=O)c(Oc2ccc(Br)cc2F)nc2ccc(F)cc21
IC50 [2]: 6.44 nM
inhibition [3]: 58.7%

O=C(O)c1nc2c(=O)[nH]c3cc(Cl)cc(-n4cnnc4)c3n2n1
Ki [1]: 400 nM
Ki [4]: 2300 nM
IC50 [21]: 37000 nM

CCCCCCCCCn1c(=O)c2c(-c3ccccc3)nc(-c3ccc[n+](CCCCCCCCC)c3)n2c2ccccc21.[I-]
MBC [6]: > 500 µg/mL
MIC [6]: > 500 µg/mL
MBC [7]: > 500 µg/mL
MIC [7]: > 500 µg/mL
MBC [8]: 500 µg/mL
MIC [8]: 7.8 µg/mL
MBC [9]: > 500 µg/mL
MIC [9]: > 500 µg/mL
MBC [10]: > 500 µg/mL
MIC [10]: 7.8 µg/mL
MBC [11]: > 500 µg/mL
MIC [11]: > 500 µg/mL
MBC [12]: > 500 µg/mL
MIC [12]: > 500 µg/mL

O=C(O)c1nc2ccc(Cl)cc2[nH]c1=O
MIC [7]: 125 µg/mL (≈ 557 µM)

C[C@H]1Cc2cc(Cl)cc3[nH]c(=O)c(=O)n(c23)C1CC(=O)Nc1ccccc1 (stereo partly drawn)
Ki [5]: 3.1 nM

COc1ccc(/C(=C(\C#N)C(=O)NN)n2c(=O)c(O)nc3ccccc32)cc1
IC50 [22]: 2610 nM
IC50 [23]: 8920 nM

O=C(Nc1ccc(C(=O)O)cc1)OCc1cn(-c2cc3nc(C(=O)O)c(O)nc3cc2C(F)(F)F)cn1
Ki [13]: 16 nM

CCc1nc2ccc(C(F)(F)F)cc2[nH]c1=O
MIC [6]: 125 µg/mL (≈ 516 µM)

NC(Cn1c(=O)c(=O)[nH]c2ccccc21)C(=O)O (stereo not drawn)
IC50 [1]: 690 nM

C=Cc1c(Br)cc2nc(O)c(O)nc2c1CN(C)CC(=O)O
IC50 [1]: 1180 nM

CCOC(=O)c1nc2ccc(C(F)(F)F)cc2[nH]c1=O
MIC [7]: 125 µg/mL (≈ 437 µM)

CCCCCCCCCn1c(=O)c2c(-c3ccccc3)nc(-c3ccc[n+](Cc4ccccc4)c3)n2c2ccccc21.[Cl-]
MBC [6]: > 500 µg/mL
MIC [6]: > 500 µg/mL
MBC [7]: > 500 µg/mL
MIC [7]: > 500 µg/mL
MBC [8]: 50 µg/mL
MIC [8]: 1.95 µg/mL
MBC [9]: 500 µg/mL
MIC [9]: 3.9 µg/mL
MBC [10]: > 500 µg/mL
MIC [10]: 12.5 µg/mL
MBC [11]: > 500 µg/mL
MIC [11]: > 500 µg/mL
MBC [12]: > 500 µg/mL
MIC [12]: 500 µg/mL

CCc1nc2cc(C(F)(F)F)ccc2[nH]c1=O
MIC [6]: 62.5 µg/mL (≈ 258 µM)

O=C(C[C@@H]1CCc2cc(Br)cc3[nH]c(=O)c(=O)n1c23)Nc1ccccc1
Ki [5]: 0.96 nM

Nc1cc(Cl)cc2[nH]c(=O)c3nc(C(=O)O)nn3c12
Ki [1]: 3200 nM
Ki [4]: 160 nM
IC50 [21]: 34100 nM

C[C@H]1Cc2cc(Cl)cc3[nH]c(=O)c(=O)n(c23)C1CC(=O)O (stereo partly drawn)
Ki [5]: 4.4 nM

CCOC(=O)c1nc2cc(F)c(N3CCOCC3)cc2[nH]c1=O
MIC [6]: 250 µg/mL (≈ 778 µM)

CCCCCCCCCn1c(=O)c2c(-c3ccccc3)nc(-c3ccc[n+](CCCCCCCCC)c3)n2c2ccccc21.[Br-]
MBC [6]: > 500 µg/mL
MIC [6]: > 500 µg/mL
MBC [7]: > 500 µg/mL
MIC [7]: > 500 µg/mL
MBC [8]: 50 µg/mL
MIC [8]: 1.5 µg/mL
MBC [9]: 500 µg/mL
MIC [9]: 50 µg/mL
MBC [10]: 500 µg/mL
MIC [10]: 6.3 µg/mL
MBC [11]: > 500 µg/mL
MIC [11]: > 500 µg/mL
MBC [12]: > 500 µg/mL
MIC [12]: 500 µg/mL

CCCCCCCCC[n+]1cccc(-c2nc(-c3ccccc3)c3c(=O)n(CCCCCC)c4ccccc4n23)c1.[Br-]
MBC [6]: > 500 µg/mL
MIC [6]: > 500 µg/mL
MBC [7]: 500 µg/mL
MIC [7]: 500 µg/mL
MBC [8]: 5 µg/mL
MIC [8]: 0.97 µg/mL
MBC [9]: 50 µg/mL
MIC [9]: 0.97 µg/mL
MBC [10]: 50 µg/mL
MIC [10]: 0.97 µg/mL
MBC [11]: > 500 µg/mL
MIC [11]: > 500 µg/mL
MBC [12]: 250 µg/mL
MIC [12]: 250 µg/mL

CCCCCCn1c(=O)c2c(-c3ccccc3)nc(-c3ccc[n+](Cc4ccccc4)c3)n2c2ccccc21.[Cl-]
MBC [6]: > 500 µg/mL
MIC [6]: > 500 µg/mL
MBC [7]: > 500 µg/mL
MIC [7]: > 500 µg/mL
MBC [8]: 50 µg/mL
MIC [8]: 0.97 µg/mL
MBC [9]: 500 µg/mL
MIC [9]: 7.8 µg/mL
MBC [10]: > 500 µg/mL
MIC [10]: 6.3 µg/mL
MBC [11]: > 500 µg/mL
MIC [11]: > 500 µg/mL
MBC [12]: > 500 µg/mL
MIC [12]: 500 µg/mL

O=C(O)C[C@@H]1CCc2cc(Br)cc3[nH]c(=O)c(=O)n1c23
Ki [5]: 2.3 nM

C[C@H]1Cc2cc(Br)cc3[nH]c(=O)c(=O)n(c23)C1CC(=O)O (stereo partly drawn)
Ki [5]: 3.3 nM
